# In ChEMBL document CHEMBL4130359, “Indazole-based ligands for estrogen-related receptor α as potential anti-diabetic agents” (Eur J Med Chem, 2017):
# pEC50, pIC50: −log10 of the molar value.
# Columns and labels:
# [1] = test system: Rattus norvegicus; assay: Effect on MSMO1 gene expression in epididymal white adipose tissue of Zucker rat sub-chronic fa/fa prediabetic model at 10 mg/kg, po qd for 15 days by microarray analysis relative to control; assay type: functional
# [2] = test system: Rattus norvegicus; assay: Toxicity in […] chronic ob/ob model assessed as food intake at 50 mg/kg, po qd for 28 days measured on day 1 to 28 during compound dosing (reference value: 170.6 +/- 3 g); assay type: organism-based; settings: in vivo, 672 h
# [3] = test system: Rattus norvegicus; assay: Toxicity in Zucker rat sub-chronic fa/fa prediabetic model assessed as liver weight at 10 mg/kg, po qd for 31 days measured on day 32 (reference value: 28 +/- 1.6 g); assay type: organism-based; settings: in vivo, 744 h
# [4] = test system: Rattus norvegicus; assay: Toxicity in […] model assessed as serum BUN level at 50 mg/kg, po qd for 31 days measured on day 32 (reference value: 28.3 +/- […]); assay type: organism-based; settings: in vivo, 744 h
# [5] = test system: Rattus norvegicus; assay type: functional, Zucker
# [6] = molecular target: Peroxisome proliferator-activated receptor delta (Homo sapiens, UniProt Q03181); assay: Agonist activity at recombinant GST-tagged human PPARdelta LBD assessed as fluorescein-labeled coactivator peptide recruitment preincubated with enzyme followed by coactivator addition by LanthaScreen TR-FRET assay
# Sequence of Peroxisome proliferator-activated receptor delta (Q03181 whole entry, the tested form may be a part): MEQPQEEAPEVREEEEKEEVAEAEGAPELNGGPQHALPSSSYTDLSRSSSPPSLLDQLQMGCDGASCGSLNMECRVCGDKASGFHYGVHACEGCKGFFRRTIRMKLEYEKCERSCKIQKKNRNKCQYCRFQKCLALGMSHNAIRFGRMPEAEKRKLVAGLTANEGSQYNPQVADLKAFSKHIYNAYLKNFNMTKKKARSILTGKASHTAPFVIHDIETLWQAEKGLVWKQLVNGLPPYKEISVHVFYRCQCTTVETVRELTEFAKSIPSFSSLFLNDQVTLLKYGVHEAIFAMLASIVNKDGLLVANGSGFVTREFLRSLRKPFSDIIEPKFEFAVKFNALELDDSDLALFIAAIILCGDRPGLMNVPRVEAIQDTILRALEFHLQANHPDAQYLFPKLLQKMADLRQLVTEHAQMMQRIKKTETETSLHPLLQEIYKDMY
# [7] = test system: Rattus norvegicus; assay: Toxicity in […] chronic ob/ob model assessed as change in body weight at 3 mg/kg, po qd for 28 days measured on day 1 to 28 during compound dosing (reference value: 9.9 +/- 1.27 g); assay type: organism-based; settings: in vivo, 672 h
# [8] = test system: Rattus norvegicus; assay: Antidiabetic activity in Zucker rat sub-chronic fa/fa prediabetic model assessed as fasting blood insulin level at 3 mg/kg, po qd for 31 days measured on day 29 post dose (reference value: 8.5 +/- 1.4 ug/L); assay type: functional
# [9] = test system: Rattus norvegicus; assay: Antidiabetic activity in Zucker rat sub-chronic fa/fa prediabetic model assessed as fasting blood glucose level at 3 mg/kg, po qd for 31 days measured on day 29 post dose (reference value: 163 +/- 9.2 mg/dl); assay type: functional
# [10] = test system: Rattus norvegicus; assay: Effect on SFN gene expression in epididymal white adipose tissue of Zucker rat sub-chronic fa/fa prediabetic model at 10 mg/kg, po qd for 15 days by microarray analysis relative to control; assay type: functional
# [11] = test system: Rattus norvegicus; assay: Toxicity in Zucker rat sub-chronic fa/fa prediabetic model assessed as serum creatinine level at 10 mg/kg, po qd for 31 days measured on day 32 (reference value: 0.71 +/- 0.07 mg/dl); assay type: organism-based; settings: in vivo, 744 h
# [12] = test system: Rattus norvegicus; assay: Antidiabetic activity in Zucker rat sub-chronic fa/fa prediabetic model assessed as fasting blood insulin level at 1 mg/kg, po qd for 31 days measured on day 29 post dose (reference value: 8.5 +/- 1.4 ug/L); assay type: functional
# [13] = AUC (0 to 24 hrs) in Zucker rat sub-chronic fa/fa prediabetic model at 1 mg/kg, po qd for 26 days measured on day 26 post last dose; assay type: ADME, organism-based; set-up: time < 24 hr, dose 1 mg/kg, route oral; settings: in vivo
# [14] = test system: Rattus norvegicus; assay: Effect on PLCB1 gene expression in epididymal white adipose tissue of Zucker rat sub-chronic fa/fa prediabetic model at 10 mg/kg, po qd for 15 days by microarray analysis relative to control; assay type: functional
# [15] = test system: Rattus norvegicus; assay: Effect on CPT2 gene expression in epididymal white adipose tissue of Zucker rat sub-chronic fa/fa prediabetic model at 10 mg/kg, po qd for 15 days by microarray analysis relative to control; assay type: functional
# [16] = test system: Rattus norvegicus; assay: Toxicity in Zucker rat sub-chronic fa/fa prediabetic model assessed as liver weight at 50 mg/kg, po qd for 31 days measured on day 32 (reference value: 28 +/- 1.6 g); assay type: organism-based; settings: in vivo, 744 h
# [17] = test system: Rattus norvegicus; assay: Decrease in fed plasma triglyceride level in Zucker rat sub-chronic fa/fa prediabetic model assessed as change in plasma triglyceride level at 10 mg/kg, po qd for 4 days measured on day 5 relative to control; assay type: functional; set-up: scale not given: the % may be the effect or the level left
# [18] = test system: Rattus norvegicus; assay: Toxicity in Zucker rat sub-chronic fa/fa prediabetic model assessed as triglyceride level per gram liver at 3 mg/kg, po qd for 31 days measured on day 32 (reference value: 163.4 +/- 8.3 mg); assay type: organism-based; settings: in vivo, 744 h
# [19] = molecular target: Steroid hormone receptor ERR2 (Homo sapiens, UniProt O95718); assay: Antagonist activity at recombinant GST-tagged human ERRbeta LBD assessed as inhibition of fluorescein-labeled coactivator peptide recruitment preincubated with enzyme followed by coactivator addition by LanthaScreen TR-FRET assay
# Sequence of Steroid hormone receptor ERR2 (O95718 whole entry, the tested form may be a part): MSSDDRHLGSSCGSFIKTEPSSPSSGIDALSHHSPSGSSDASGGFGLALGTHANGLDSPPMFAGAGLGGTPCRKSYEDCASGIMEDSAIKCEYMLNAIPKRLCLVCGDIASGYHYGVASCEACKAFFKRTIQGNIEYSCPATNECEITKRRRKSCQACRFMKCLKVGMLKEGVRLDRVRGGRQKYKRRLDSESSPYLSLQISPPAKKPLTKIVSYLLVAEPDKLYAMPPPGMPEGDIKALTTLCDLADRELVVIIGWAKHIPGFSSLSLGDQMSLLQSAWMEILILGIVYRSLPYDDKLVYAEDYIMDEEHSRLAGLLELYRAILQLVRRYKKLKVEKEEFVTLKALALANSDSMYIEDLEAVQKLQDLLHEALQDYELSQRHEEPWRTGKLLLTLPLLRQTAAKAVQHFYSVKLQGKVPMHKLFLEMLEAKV
# [20] = test system: Rattus norvegicus; assay: Antidiabetic activity in Zucker rat sub-chronic fa/fa prediabetic model assessed as blood insulin AUC (0 to 120 min) at 1 mg/kg, po qd for 31 days measured on day 29 post dose (reference value: 1503 +/- 160 ug.min/L); assay type: functional, organism-based; set-up: time < 2 hr, dose 1 mg/kg
# [21] = test system: Rattus norvegicus; assay: Toxicity in […] model assessed as serum ALT level at 3 mg/kg, po qd for 31 days measured on day 32 (reference value: 127 +/- 9 U/L); assay type: organism-based; settings: in vivo, 744 h
# [22] = test system: Rattus norvegicus; assay: Effect on PIAS1 gene expression in epididymal white adipose tissue of Zucker rat sub-chronic fa/fa prediabetic model at 10 mg/kg, po qd for 15 days by microarray analysis relative to control; assay type: functional
# [23] = Terminal half life in ob/ob mouse at 18 mg/kg administered via oral gavage by LC-MS analysis; assay type: ADME, organism-based; settings: in vivo, read-out: beta t1/2 (converted)
# [24] = test system: Rattus norvegicus; assay: Effect on PCK1 gene expression in epididymal white adipose tissue of Zucker rat sub-chronic fa/fa prediabetic model at 10 mg/kg, po qd for 15 days by microarray analysis relative to control; assay type: functional
# [25] = test system: Rattus norvegicus; assay: Effect on NFKB1 gene expression in epididymal white adipose tissue of Zucker rat sub-chronic fa/fa prediabetic model at 10 mg/kg, po qd for 15 days by microarray analysis relative to control; assay type: functional
# [26] = test system: Rattus norvegicus; assay: Antidiabetic activity in […] chronic ob/ob model assessed as increase in plasma adiponectin level administered po qd for 31 days measured on day 32 by ELISA; assay type: functional, organism-based
# [27] = test system: Rattus norvegicus; assay: Toxicity in […] model assessed as serum cholesterol level at 50 mg/kg, po qd for 31 days measured on day 32 (reference value: 195 +/- 5.5 mg/dl); assay type: organism-based; settings: in vivo, 744 h
# [28] = test system: Rattus norvegicus; assay: Antidiabetic activity in Zucker rat sub-chronic fa/fa prediabetic model assessed as reduction in blood glucose AUC (0 to 120 min) at 1 mg/kg, po qd for 31 days measured on day 29 post dose by OGTT relative to control; assay type: functional; set-up: scale not given: the % may be the effect or the level left
# [29] = test system: Rattus norvegicus; assay: Antidiabetic activity in po dosed Zucker rat chronic ob/ob model assessed as reduction in HbA1c level administered once daily for 31 days measured on day 28 post dose by OGTT; assay type: functional, organism-based
# [30] = test system: Rattus norvegicus; assay: Effect on PPP2R5B gene expression in epididymal white adipose tissue of Zucker rat sub-chronic fa/fa prediabetic model at 10 mg/kg, po qd for 15 days by microarray analysis relative to control; assay type: functional
# [31] = test system: Rattus norvegicus; assay: Effect on NFKBIB gene expression in epididymal white adipose tissue of Zucker rat sub-chronic fa/fa prediabetic model at 10 mg/kg, po qd for 15 days by microarray analysis relative to control; assay type: functional
# [32] = Cmax in […] chronic ob/ob model at 3 mg/kg, po qd measured on day 1 post dose; assay type: ADME, organism-based; set-up: dose 3 mg/kg, route oral; settings: in vivo
structure (smiles),measurement,setting,value
CN1CC[C@@H](N2C(=O)S/C(=C\c3ccc4c(cnn4Cc4ccc(Cl)cc4C(F)(F)F)c3)C2=O)[C@H](F)C1,fold change (FC),[1],-1.271
same,Activity,[2],152.4 g
same,Activity,[3],18.5 g
same,Activity,[4],29.5 mg/dL
same,Activity,[5],27017 mg·min/dL
same,pEC50,[6],< 5.00
same,Activity,[7],6.3 g
same,Activity,[8],4.8 µg/L
same,Activity,[9],118 mg/dL
same,fold change (FC),[10],-1.468
same,Activity,[11],0.57 mg/dL
same,Activity,[12],5 µg/L
same,AUC at 24 h,[13],3200 ng·h/mL
same,fold change (FC),[14],1.58
same,fold change (FC),[15],2.352
same,Activity,[16],17.8 g
same,Activity,[17],-68%
same,Activity,[18],124.7 mg
same,pIC50,[19],< 5.00
same,AUC,[20],16.6 ng·h/mL
same,Activity,[21],172 U/L
same,fold change (FC),[22],-1.323
same,half-life,[23],8.1 h
same,fold change (FC),[24],1.391
same,fold change (FC),[25],-1.254
same,Activity,[26],Dose-dependent effect
same,Activity,[27],145 mg/dL
same,Activity,[28],23%
same,Activity,[29],Dose-dependent effect
same,fold change (FC),[30],1.276
same,fold change (FC),[31],1.31
same,Cmax,[32],207 ng/mL
